Data from paper PMC4693163, “Candida albicans Shed Msb2 and Host Mucins Affect the Candidacidal Activity of Salivary Hst 5” (Pathogens, 2015).

Columns and labels:
Candida albicans = test: Candidacidal assay (microdilution plate) of Hst 5 after pre-incubation with proteins; assay type: cell-based; conditions: 37 °C, 1 h
Procedure: (§1) Candidacidal assays—The susceptibility of C. albicans cells to Hst 5 was measured using microdilution plate assays in triplicate as previously described, with some modifications for experiments involving rSap6 and mucins. Briefly, Hst 5 was incubated with the required concentration of respective proteins for 1 h at 37 °C before performing the candidacidal assay. For heat inactivated control of rSaps, protein was heat inactivated at 120 °C for 10 min before using in the candidacidal assay.

rSap 6 = molecular target: T1, rSap 6 (Candida albicans, UniProt Q5AC08); test: Proteolytic stability of Hst 5 with rSap 6 (10 KDa cut-off filtrate, LC/MS); assay type: in vitro ADME; conditions: 2:1 Hst 5: Sap 6, 37 °C, 1 h, C18 column, peaks m/z 760, 608, 507
T1 construct: made in house
Procedure: To further address whether Sap 6 degrades Hst 5, we spun the 2:1 Hst 5: Sap 6 incubation mixture through a Centricon® 10 KDa molecular weight cut-off column that would allow Hst 5 and smaller peptides to pass through; and subjected the eluate to Liquid Chromatography/Mass Spectrometry. […] Analysis of these fragments to determine Sap6-specific cleavage sites within Hst 5 is ongoing.
(§2) Proteolytic stability—For Hst 5 degradation analysis, Hst 5 was incubated with the required concentration of respective proteins for 1 h at 37 °C; and the reaction mixture was spun through a Centricon® 10 KDa cut-off column (Millipore UFC501024, Amicon Ultra-0.5 centrifugal filter unit with Ultracel-10 membrane), diluted in water with 2%TFA (trifluoroacetic acid) to 40 ug/mL of peptide, and analyzed by Liquid Chromatography/Mass Spectrometry utilizing a C18 column and an API3000 triple quadrupole mass spectrometer (Applied Biosystems, Foster City, CA,USA). The mass spectrum of Hst 5 gave a distribution of charge states with the most abundant being the M + 4 at 760 Da.

albumin = molecular target: T2, albumin (Bos taurus, UniProt P02769); test: Hst 5 degradation analysis with albumin (10 KDa cut-off filtrate, LC/MS); assay type: in vitro ADME; conditions: 40 μM Hst 5 with 40 μM albumin, 37 °C, 1 h, C18 column
T2 construct: purchased Sigma Aldrich A2153
Procedure: (§3) We next investigated whether the effect of these proteins on Hst 5 activity is related to complexation and Hst 5 sequestration or as a result, instead, of degradation caused by potential contaminating proteases that may be present in these commercial proteins. For this, 40 μM Hst 5 was incubated for 1 h at 37 °C with either 50 or 500 μg/mL porcine mucin or 40 μM albumin, respectively, and spun through a Centricon® 10 KDa molecular weight cut-off column that would allow Hst 5 and smaller peptides to pass through followed by Liquid Chromatography/Mass Spectrometry analysis of the eluate.
as §2

porcine mucin = test: Hst 5 degradation analysis with porcine mucin (10 KDa cut-off filtrate, LC/MS); assay type: in vitro ADME; conditions: 37 °C, 1 h
Procedure: as §3, §2

[1] = tested on: C. albicans Msb2 domain mutant cells; test: Candidacidal assay on HA-tagged Msb2 domain mutant cells; assay type: cell-based, Candida albicans; conditions: Figure 6
Text: C. albicans strains with HA-tagged Msb2 and its domain mutants were constructed previously. These mutants consisted of versions of Msb2 lacking each of the major functional domains: ED1/2Δ lacking residues 100–900 of the glycosylated extracellular region so that shed Msb2 is truncated with low glycosylation; ED4Δ cells lacking Msb2 residues 900–1250 within the cleavage domain of Msb2 resulting in constitutive shedding of Msb2 due to loss of cell tethering; and TM-CYTΔ cells lacking residues 1250–1409 that comprise the transmembrane and cytoplasmic signaling domain of Msb2 so that Msb2 is cleaved and shed in the absence of signaling. Briefly, Msb2 deletion derivative strains were constructed by a PCR-based approach using the URA-Blaster technique. PCR primers were designed to amplify the 3HA-URA3–3HA cassette in plasmid pCaMPY-3XHA [26], tailed with an additional 80 nucleotides of sequence flanking the open reading frame (ORF) of the region to be disrupted. PCR products were verified by gel electrophoresis. The purified PCR product (10 μg) was transformed into the Δmsb2/MSB2 strain with Frozen-EZ Yeast Transformation II Kit (Zymo Research, CA, USA). Uracil-deficient agar (YNB-URA) media was used for selection of URA positive colonies. PCR-based analysis of transformants was performed with primer pairs internal to the wild-type locus and the URA cassette. Homozygous transformants were reverted to the URA negative phenotype by selection on 5-fluororotic acid (5-FOA). Domain deletion knockouts were verified by immunoblot analysis.
as §1

Histatin 5 = molecular target: T3, Histatin 5 (UniProt P15516)
T3 sequence (peptide): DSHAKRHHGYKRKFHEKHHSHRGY

T1 sequence (Q5AC08 77-418): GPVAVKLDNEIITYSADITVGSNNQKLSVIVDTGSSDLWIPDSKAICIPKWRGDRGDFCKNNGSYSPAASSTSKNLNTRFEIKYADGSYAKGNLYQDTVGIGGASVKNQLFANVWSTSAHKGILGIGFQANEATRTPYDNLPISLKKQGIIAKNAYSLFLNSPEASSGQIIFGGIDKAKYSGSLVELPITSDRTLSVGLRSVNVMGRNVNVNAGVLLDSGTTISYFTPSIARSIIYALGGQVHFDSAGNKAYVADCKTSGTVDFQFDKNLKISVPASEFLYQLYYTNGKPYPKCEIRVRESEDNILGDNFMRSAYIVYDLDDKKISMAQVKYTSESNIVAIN
T2 sequence (P02769 25-607): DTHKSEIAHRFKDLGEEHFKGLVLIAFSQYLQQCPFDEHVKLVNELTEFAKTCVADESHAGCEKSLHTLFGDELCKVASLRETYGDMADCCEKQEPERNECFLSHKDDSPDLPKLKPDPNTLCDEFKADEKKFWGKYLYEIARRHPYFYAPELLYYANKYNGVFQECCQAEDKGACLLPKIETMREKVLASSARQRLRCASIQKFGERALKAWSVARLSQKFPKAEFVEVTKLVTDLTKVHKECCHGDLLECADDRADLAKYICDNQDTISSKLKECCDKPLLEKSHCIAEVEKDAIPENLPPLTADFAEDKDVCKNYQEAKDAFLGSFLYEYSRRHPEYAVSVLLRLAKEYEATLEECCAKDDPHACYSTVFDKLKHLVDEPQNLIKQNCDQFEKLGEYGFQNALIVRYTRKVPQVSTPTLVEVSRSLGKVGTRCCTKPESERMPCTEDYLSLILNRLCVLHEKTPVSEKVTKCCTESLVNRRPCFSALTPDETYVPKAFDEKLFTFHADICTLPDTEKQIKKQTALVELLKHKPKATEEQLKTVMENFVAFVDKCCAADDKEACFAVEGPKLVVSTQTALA

## C[C@H](NC(=O)[C@H](Cc1cnc[nH]1)NC(=O)[C@H](CO)NC(=O)[C@@H](N)CC(=O)O)C(=O)N[C@@H](CCCCN)C(=O)N[C@@H](CCCNC(=N)N)C(=O)N[C@@H](Cc1cnc[nH]1)C(=O)N[C@@H](Cc1cnc[nH]1)C(=O)NCC(=O)N[C@@H](Cc1ccc(O)cc1)C(=O)N[C@@H](CCCCN)C(=O)N[C@@H](CCCNC(=N)N)C(=O)N[C@@H](CCCCN)C(=O)N[C@@H](Cc1ccccc1)C(=O)N[C@@H](Cc1cnc[nH]1)C(=O)N[C@@H](CCC(=O)O)C(=O)N[C@@H](CCCCN)C(=O)N[C@@H](Cc1cnc[nH]1)C(=O)N[C@@H](Cc1cnc[nH]1)C(=O)N[C@@H](CO)C(=O)N[C@@H](Cc1cnc[nH]1)C(=O)N[C@@H](CCCNC(=N)N)C(=O)NCC(=O)N[C@@H](Cc1ccc(O)cc1)C(=O)O [Hst 5, Histatin 5]
Candida albicans; Hst 5 30 μM pre-incubated with heat inactivated rSap 6 (120 °C, 10 min)
  effect on Hst 5 candidacidal activity: did not affect Hst 5 activity
Candida albicans; Hst 5 30 μM with porcine gut mucin 5 μg/mL
  effect on Hst 5 candidacidal activity: no effect on Hst 5 activity
Candida albicans; Hst 5 30 μM with porcine gut mucin 50 μg/mL
  effect on Hst 5 candidacidal activity: no effect on Hst 5 activity
rSap 6
  intact Hst 5 mass peaks after incubation with protease: completely disappeared
albumin
  intact Hst 5 mass peaks after incubation: reduction in the peak intensity of all 3 m/z peaks for intact Hst 5 with no emergence of any significant lower m/z peaks
Porcine mucin; 40 μM Hst 5 with 500 μg/mL porcine mucin, M + 4 (760) peak still observed at lower intensity
  intact Hst 5 mass peaks after incubation: almost complete disappearance of m/z peaks at 507 and 608
Porcine mucin; 40 μM Hst 5 with 50 or 500 μg/mL porcine mucin, C18 column
  intact Hst 5 mass peaks after incubation: large dose-dependent decrease in the intensity of all three m/z peaks
[1]; ED1/2Δ cells (release truncated Msb2 shed domain), p > 0.05
  Hst 5 killing compared with WT: killing similar to WT Msb2-HA cells
[1]; ED4Δ cells (constitutively shed Msb2), p > 0.05
  Hst 5 killing compared with WT: killing similar to WT Msb2-HA cells
[1]; TM-CYTΔ cells (lack transmembrane and cytoplasmic domain of Msb2)
  Hst 5 killing compared with WT: reduced killing
[1]; cells lacking Msb2 (msb2Δ, no shedding), compared to other sMsb2 defective strains
  Hst 5 killing: killing was not significantly reduced

## albumin (from UniProt P02769 25-607) (natural protein)
Histatin 5
  candidacidal activity (percent killing of C. albicans) of 30 uM Hst 5 after 1 h at 37 C with equimolar albumin; 70% without added protein: 50 % killing

## purified full-length shed domain of Msb2 (domain or fragment)
Histatin 5
  candidacidal activity (percent killing of C. albicans) of 30 uM Hst 5 after 1 h at 37 C with equimolar sMsb2; 70% without added protein: 38 % killing

B1: fetuin (natural protein)
chain: IPLDPVAGYKEPACDDPDTEQAALAAVDYINKHLPRGYKHTLNQIDSVKVWPRRPTGEVYDIEIDTLETTCHVLDPTPLANCSVRQQTQHAVEGDCDIHVLKQDGQFSVLFTKCDSSPDSAEDVRKLCPDCPLLAPLNDSRVVHAVEVALATFNAESNGSYLQLVEISRAQFVPLPVSVSVEFAVAATDCIAKEVVDPTKCNLLAEKQYGFCKGSVIQKALGGEDVRVTCTLFQTQPVIPQPQPDGAEAEAPSAVPDAAGPTPSAAGPPVASVVVGPSVVAVPLPLHRAHYDLRHTFSGVASVESSSGEAFHVGKTPIVGQPSIPGGPVRLCPGRIRYFKI
modifications: glycosylated
Histatin 5
  candidacidal activity (percent killing of C. albicans) of 30 uM Hst 5 after 1 h at 37 C with equimolar fetuin; 70% without added protein: 50 % killing
